Key:
Assay type in all cases: cell-based
[1] = biological target: T1, norepinephrine transporter (Homo sapiens, UniProt P23975); assay: Norepinephrine reuptake inhibition in transporter-transfected HEK-293 cells ([3H]-NE); conditions: for Triple reuptake inhibition (Ratio %) NET: compound 1 μM, [3H]-NE, relative to control without compound (100%), lower = more inhibition; for IC50: concentration at which Ratio % is 50%, 6 concentrations 1 nM to 1 μM, read-out: Triple reuptake inhibition (IC50, μM) NET
T1 construct: expressed in transfected cells; host or cells: HEK-293
Experimental: (§1) To evaluate the reuptake inhibitory effect on dopamine, the dopamine transporter cDNA was transfected using the HEK-293 cell line, and then sub-seeded in a 24 well plate the next day. After removing the medium, each compound of the Examples or Comparative Examples diluted to 1 μM in uptake buffer was added to a concentration of 200 μl/well and cultured at 37° C. for 15 minutes. 100 μl of uptake buffer containing 20-30 nM [3H]-DA was added and cultured at 37° C. for 5 minutes. The reaction solution was quickly removed and washed three times with 1 ml ice-cold uptake buffer. After dissolving the resultant in 1% SDS (0.5 ml), the degree of binding of radioisotope-labeled dopamine to the transporter was measured.
(§2) For norepinephrine (NE) and serotonin (5-HT), the degree of binding of radioisotope-labeled norepinephrine or serotonin to the transporter was measured in the same manner as above, except that cells transfected with NE or 5-HT transporter cDNA were used and [3H]-NE or [3H]-5-HT was used as a substrate.
(§3) In addition, when evaluating the reuptake inhibitory effect on dopamine, norepinephrine, and serotonin, the same method was performed without treating each compound of the Examples or Comparative Examples as a control, the degree of binding of radioisotope-labeled dopamine, norepinephrine, and serotonin to the transporter was measured, and by using this as a standard (100%), the triple reuptake inhibitory effect was evaluated as a relative ratio (Ratio %). That is, in the control group, the binding of dopamine, norepinephrine, and serotonin to transporters is not inhibited, but when each compound of the Examples is treated and thus the binding is inhibited, the Patio % value decreases.
(§4) Meanwhile, the Patio % values were compared, and in the case of the compounds of Examples 6, 9, 10, 19, 20, 22, 24, 28, 30, 31, 32, 33, 35, 41, 42, 48, 49, 51, 55, 56, 59, 61, 63, 64, 65, 66, 74 and 76 with excellent reuptake inhibitory effects on dopamine, norepinephrine and serotonin, the concentration at which the Ratio % is 50% was calculated using a total of 6 concentrations (1 nM, 5 nM, 10 nM, 50 nM, 100 nM, and 1 μM) and expressed as IC50. In addition, in the case of the compound of Comparative Example 1, IC50 was obtained by the same method as the Example Compounds.

[2] = biological target: T2, dopamine transporter (Homo sapiens, UniProt Q01959); assay: Dopamine reuptake inhibition in transporter-transfected HEK-293 cells ([3H]-DA); conditions: for Triple reuptake inhibition (Ratio %) DAT: compound 1 μM, 20-30 nM [3H]-DA, relative to control without compound (100%), lower = more inhibition; for IC50: concentration at which Ratio % is 50%, 6 concentrations 1 nM to 1 μM, read-out: Triple reuptake inhibition (IC50, μM) DAT
T2 construct: expressed in transfected cells; host or cells: HEK-293
Experimental: as §1, §3, §4

[3] = biological target: T3, serotonin transporter (Homo sapiens, UniProt P31645); assay: Serotonin reuptake inhibition in transporter-transfected HEK-293 cells ([3H]-5-HT); conditions: for Triple reuptake inhibition (Ratio %) SERT: compound 1 μM, [3H]-5-HT, relative to control without compound (100%), lower = more inhibition; for IC50: concentration at which Ratio % is 50%, 6 concentrations 1 nM to 1 μM, read-out: Triple reuptake inhibition (IC50, μM) SERT
T3 construct: expressed in transfected cells; host or cells: HEK-293
Experimental: as §1, §2, §3
In addition, in the case of the compound of Comparative Example 1, IC50 was obtained by the same method as the Example Compounds.

T1 sequence (P23975 whole entry, species assumed): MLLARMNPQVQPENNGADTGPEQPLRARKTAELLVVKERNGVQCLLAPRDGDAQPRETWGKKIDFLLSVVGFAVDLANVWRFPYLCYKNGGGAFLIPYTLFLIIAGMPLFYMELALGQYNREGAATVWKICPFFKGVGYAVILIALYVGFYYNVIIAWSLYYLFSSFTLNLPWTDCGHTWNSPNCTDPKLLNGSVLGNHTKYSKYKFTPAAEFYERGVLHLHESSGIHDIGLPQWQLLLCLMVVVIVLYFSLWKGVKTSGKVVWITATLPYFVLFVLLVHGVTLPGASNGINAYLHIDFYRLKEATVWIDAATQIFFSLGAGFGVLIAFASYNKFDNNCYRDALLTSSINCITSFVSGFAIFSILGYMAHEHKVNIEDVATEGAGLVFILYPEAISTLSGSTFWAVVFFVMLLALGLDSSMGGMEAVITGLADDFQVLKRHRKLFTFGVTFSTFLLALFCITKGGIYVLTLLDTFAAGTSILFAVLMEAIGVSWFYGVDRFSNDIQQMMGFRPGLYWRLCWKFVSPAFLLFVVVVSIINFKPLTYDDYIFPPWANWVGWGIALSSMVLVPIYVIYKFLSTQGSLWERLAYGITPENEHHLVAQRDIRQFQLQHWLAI
T3 sequence (P31645 whole entry): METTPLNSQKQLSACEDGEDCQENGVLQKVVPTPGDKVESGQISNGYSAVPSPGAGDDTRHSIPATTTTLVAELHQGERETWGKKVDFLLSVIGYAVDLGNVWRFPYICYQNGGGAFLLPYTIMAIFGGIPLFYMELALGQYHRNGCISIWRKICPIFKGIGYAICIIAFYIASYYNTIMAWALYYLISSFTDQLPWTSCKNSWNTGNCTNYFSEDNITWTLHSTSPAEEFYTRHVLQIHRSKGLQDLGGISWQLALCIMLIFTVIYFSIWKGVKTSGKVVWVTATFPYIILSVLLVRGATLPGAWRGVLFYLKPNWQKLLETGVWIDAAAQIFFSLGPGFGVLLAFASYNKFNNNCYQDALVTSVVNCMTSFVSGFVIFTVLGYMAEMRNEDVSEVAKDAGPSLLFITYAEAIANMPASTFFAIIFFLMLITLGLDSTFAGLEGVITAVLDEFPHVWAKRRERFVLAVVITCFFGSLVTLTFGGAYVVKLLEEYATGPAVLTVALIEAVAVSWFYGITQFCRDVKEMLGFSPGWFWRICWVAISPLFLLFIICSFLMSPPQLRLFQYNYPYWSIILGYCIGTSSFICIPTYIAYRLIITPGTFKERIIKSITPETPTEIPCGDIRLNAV
T2 sequence (Q01959 whole entry): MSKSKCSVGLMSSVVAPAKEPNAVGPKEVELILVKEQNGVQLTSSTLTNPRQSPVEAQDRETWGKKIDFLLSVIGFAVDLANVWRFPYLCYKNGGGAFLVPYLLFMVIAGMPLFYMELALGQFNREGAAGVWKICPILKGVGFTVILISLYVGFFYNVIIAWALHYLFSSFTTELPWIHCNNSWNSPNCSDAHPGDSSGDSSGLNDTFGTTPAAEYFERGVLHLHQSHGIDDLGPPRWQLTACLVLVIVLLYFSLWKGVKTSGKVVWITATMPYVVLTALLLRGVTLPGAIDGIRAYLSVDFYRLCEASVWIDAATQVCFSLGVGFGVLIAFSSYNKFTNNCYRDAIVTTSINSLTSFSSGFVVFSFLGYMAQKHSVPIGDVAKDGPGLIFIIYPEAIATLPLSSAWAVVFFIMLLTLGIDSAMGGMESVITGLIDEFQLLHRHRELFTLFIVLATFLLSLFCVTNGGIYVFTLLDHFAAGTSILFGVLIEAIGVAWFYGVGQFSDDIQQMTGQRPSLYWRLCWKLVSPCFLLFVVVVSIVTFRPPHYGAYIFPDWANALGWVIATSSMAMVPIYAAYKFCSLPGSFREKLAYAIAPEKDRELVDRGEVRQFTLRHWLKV

| SMILES | Triple reuptake inhibition (Ratio %) NET [1] | Triple reuptake inhibition (Ratio %) DAT [2] | Triple reuptake inhibition (Ratio %) SERT [3] | IC50 [2] | IC50 [1] | IC50 [3] |
| --- | --- | --- | --- | --- | --- | --- |
| O=C(NCCN1CCN(Cc2ccccc2)CC1)c1cc2ccccc2[nH]1 [Example 25, N-(2-(4-benzylpiperazin-1-yl)ethyl)-1H-indol-2-carboxamide] | 76.45% | 76.50% | 97.46% |  |  |  |
| O=C(c1cc2ccccc2[nH]1)N1CCC(Cc2ccccc2)CC1 [Example 26, (4-benzylpiperidin-1-yl) (1H-indol-2-yl)methanone] | 92.07% | 124.32% | 113.81% |  |  |  |
| O=C(NCCN1CCN(CC2CCOCC2)CC1)c1cc2ccccc2[nH]1 [Example 29, N-(2-(4-((tetrahydro-2H-pyran-4-yl)methyl)piperazin-1-yl)ethyl)-1H-indol-2-carboxamide] | 97.94% | 113.83% | 94.24% |  |  |  |
| CC(C)(CN1CCC(Cc2ccccc2)CC1)NC(=O)c1cc2ccccc2[nH]1 [Example 34, N-(1-(4-benzylpiperidin-1-yl)-2-methylpropan-2-yl)-1H-indol-2-carboxamide] | 70.66% | 55.54% | 90.64% |  |  |  |
| O=C(NCCN1CCC(C(O)c2ccccc2)CC1)c1cc2ccccc2[nH]1 (centres unmarked) [Example 36, N-(2-(4-(hydroxy(phenyl)methyl)piperidin-1-yl)ethyl)-1H-indol-2-carboxamide] | 90.99% | 84.74% | 111.92% |  |  |  |
| O=C(NCCN1CCC(c2c[nH]c3ccccc23)CC1)c1cc2ccccc2[nH]1 [Example 37, N-(2-(4-(1H-indol-3-yl)piperidin-1-yl)ethyl)-1H-indol-2-carboxamide] | 76.15% | 38.64% | 32.42% |  |  |  |
| CCCCOc1ccc2cc(C(=O)NCCN3CCC(Cc4ccccc4)CC3)[nH]c2c1 [Example 42, N-(2-(4-benzylpiperidin-1-yl)ethyl)-6-butoxy-1H-indol-2-carboxamide] | 44.53% | 45.67% | 46.64% | 0.338 µM | 0.171 µM | 0.68 µM |
| CC(CN1CCC(Cc2ccccc2)CC1)NC(=O)c1cc2ccccc2[nH]1 (centres unmarked) [Example 43, N-(1-(4-benzylpiperidin-1-yl)propan-2-yl)-1H-indol-2-carboxamide] | 56.98% | 30.29% | 81.76% |  |  |  |
| O=C(NC1CCC(Cc2ccccc2)CC1)c1cc2ccccc2[nH]1 (centres unmarked) [Example 44, N-(4-benzylcyclohexyl)-1H-indol-2-carboxamide] | 85.48% | 73.05% | 94.19% |  |  |  |
| O=C(NCCNC(=O)c1cc2ccccc2[nH]1)c1ccc2ccccc2c1 [Example 45, N-(2-(2-naphthamido)ethyl)-1H-indol-2-carboxamide] | 102.98% | 110.91% | 91.05% |  |  |  |

The next lines start with the values.

| Triple reuptake inhibition (Ratio %) NET [1] | Triple reuptake inhibition (Ratio %) DAT [2] | Triple reuptake inhibition (Ratio %) SERT [3] | IC50 [2] | IC50 [1] | IC50 [3] | SMILES |
| --- | --- | --- | --- | --- | --- | --- |
| 69.72% | 71.77% | 75.39% |  |  |  | O=C(NCCN1CCC(Cc2ccc(F)c(F)c2)CC1)c1cc2ccccc2[nH]1 [Example 27, N-(2-(4-(3,4-difluorobenzyl)piperidin-1-yl)ethyl)-1H-indol-2-carboxamide] |
| 88.77% | 37.16% | 82.81% | 0.225 µM |  |  | O=C(NCCN1CCC(c2ccc(Cl)c(Cl)c2)CC1)c1cc2ccccc2[nH]1 [Example 28, N-(2-(4-(3,4-dichlorophenyl)piperidin-1-yl)ethyl)-1H-indol-2-carb oxamide] |
| 94.09% | 49.44% | 75.29% | 0.984 µM | 7.91 µM |  | O=C(NCCN1CCC(Cc2ccccc2)CC1)c1cc2cc(Br)ccc2[nH]1 [Example 30, N-(2-(4-benzylpiperidin-1-yl)ethyl)-5-bromo-1H-indol-2-carboxamide] |
| 72.60% | 31.52% | 58.09% | 1.73 µM | 4.35 µM |  | O=C(NCCN1CCC(Cc2ccccc2)CC1)c1cc2cc(Cl)ccc2[nH]1 [Example 31, N-(2-(4-benzylpiperidin-1-yl)ethyl)-5-chloro-1H-indol-2-carboxamide] |
| 66.78% | 28.03% | 54.81% | 0.824 µM | 1.47 µM | 2.04 µM | O=C(NCCN1CCC(Cc2ccccc2)CC1)c1cc2cc(F)c(F)cc2[nH]1 [Example 32, N-(2-(4-benzylpiperidin-1-yl)ethyl)-5,6-difluoro-1H-indol-2-carboxamide] |
| 65.51% | 25.55% | 48.73% | 0.331 µM | 1.7 µM | 1.33 µM | COc1ccc2[nH]c(C(=O)NCCN3CCC(Cc4ccccc4)CC3)cc2c1 [Example 33, N-(2-(4-benzylpiperidin-1-yl)ethyl)-5-methoxy-1H-indol-2-carboxamide] |
| 70.02% | 43.94% | 70.46% |  |  |  | O=C(NCCN1CCCC(Cc2ccccc2)C1)c1cc2ccccc2[nH]1 (centres unmarked) [Example 38, N-(2-(3-benzylpiperidin-1-yl)ethyl)-1H-indol-2-carboxamide] |
| 63.99% | 40.9% | 76.27% |  |  |  | O=C(NCCN1CCC(Cc2ccccc2)CC1)c1cc2c(Cl)cc(Cl)cc2[nH]1 [Example 39, N-(2-(4-benzylpiperidin-1-yl)ethyl)-4,6-dichloro-1H-indol-2-carboxamide] |
| 59.50% | 35.13% | 92.65% |  |  |  | O=C(NCCN1CCC(Cc2ccccc2)CC1)c1cc2cc(C(F)(F)F)ccc2[nH]1 [Example 40, N-(2-(4-benzylpiperidin-1-yl)ethyl)-5-(trifluoromethyl)-1H-indol-2-carboxamide] |
| 31.85% | 12.3% | 48.50% | 0.171 µM | 0.371 µM | 0.525 µM | N#Cc1ccc2[nH]c(C(=O)NCCN3CCC(Cc4ccccc4)CC3)cc2c1 [Example 41, N-(2-(4-benzylpiperidin-1-yl)ethyl)-5-cyano-1H-indol-2-carboxamide] |
| 110.55% | 77.49% | 42.91% |  |  |  | O=C(NCCN1CCC(Cc2ccccc2)CC1)c1cc2cc(OCc3ccccc3)ccc2[nH]1 [Example 46, 5-(benzyloxy)-N-(2-(4-benzylpiperidin-1-yl)ethyl)-1H-indol-2-carboxamide] |
| 94.59% | 41.80% | 75.98% |  |  |  | O=C(NCCN1CCC(Cc2ccccc2)CC1)c1cc2cc(Cl)c(Cl)cc2[nH]1 [Example 47, N-(2-(4-benzylpiperidin-1-yl)ethyl)-5,6-dichloro-1H-indol-2-carboxamide] |
| 9.75% | 2.88% | 5.27% | 0.028 µM | 0.398 µM | 0.123 µM | COc1cc2cc(C(=O)NCCN3CCC(Cc4ccc(Cl)c(Cl)c4)CC3)[nH]c2cc1OC [Example 48] |

Source: patent US20240018119A1, “CARBOXAMIDE DERIVATIVE AND PHARMACEUTICAL COMPOSITION COMPRISING SAME AS ACTIVE INGREDIENT FOR PREVENTING OR TREATING MENTAL ILLNESS” (DAEGU-GYEONGBUK MEDICAL INNOVATION FOUNDATION, priority 2020, published 2024)
